How the values were obtained:
hepatic glucose fluxes = experiment: Hepatic glucose fluxes (flux through Glc-6-Pase, glucose cycling, direct pathway) after ICV OA; type: in vivo, rat
Protocol: Analytical Procedures and Calculations. Plasma glucose was measured by the glucose oxidase method (Glucose Analyzer II, Beckman Instruments, Inc. Fullerton, Calif., USA). Plasma insulin and leptin levels were determined by RIA (rat Leptin RIA kit, Linco Research Inc., St. Charles, Mo.). Serum adiponectin was measured by RIA (Linco Research, Inc., St. Charles, Mo.). Plasma non-esterified fatty acid concentrations were determined an enzymatic method by an automated kit according to the manufacturer's specifications (Waco Pure Chemical Industries. Osaka, Japan). The radioactivity of [3-^3H]glucose in plasma was measured from supernatants of Ba (OH)2 and from ZnSO4 precipitates (Somogyi procedure), after each was evaporated to dryness for the removal of tritiated water. Hepatic uridine diphosphoglucose (UDP-glucose) concentrations and specific activities were obtained by two sequential chromatographic separations, as previously described (Giaccari and Rossetti, 1989; 1992; Rossetti et al., 1993; 1996). Calculations were performed as described (Barzilai et al., 1997).
ICV OA markedly decreases the in vivo flux through Glc-6-Pase. GP represents the net contribution of glucosyl units derived from gluconeogenesis and glycogenolysis. However, a portion of glucose entering the liver via phophorylation by glucokinase is also a substrate for de-phosphorylation via Glc-6-Pase. This futile cycle between glucokinase and Glc-6-Pase is commonly named glucose cycling and accounts for the difference between the total glucose output (flux through Glc-6-Pase) and GP (FIG. 9a).
In order to further delineate the mechanisms responsible for the effect of ICV OA infusion on hepatic glucose production we estimated the in vivo flux through Glc-6-Pase and the relative contribution of glucose cycling to glucose output (Table 3; FIG. 9b,c). FIG. 9b,c depict the effect of ICV OA and ICV vehicle on the rates of hepatic glucose fluxes during the pancreatic-insulin clamp procedure. […]

CPT1L = target: T1, CPT1L (Rattus norvegicus, UniProt P32198); experiment: LC-CoA levels in hypothalamic nuclei by HPLC after ICV CPT1 inhibitor; type: in vivo; details: ICV administration
T1 construct: from tissue; host or cells: hypothalamus (arcuate nucleus) of male Sprague-Dawley rats, in vivo or ex vivo
T1 sequence (P32198 1-773): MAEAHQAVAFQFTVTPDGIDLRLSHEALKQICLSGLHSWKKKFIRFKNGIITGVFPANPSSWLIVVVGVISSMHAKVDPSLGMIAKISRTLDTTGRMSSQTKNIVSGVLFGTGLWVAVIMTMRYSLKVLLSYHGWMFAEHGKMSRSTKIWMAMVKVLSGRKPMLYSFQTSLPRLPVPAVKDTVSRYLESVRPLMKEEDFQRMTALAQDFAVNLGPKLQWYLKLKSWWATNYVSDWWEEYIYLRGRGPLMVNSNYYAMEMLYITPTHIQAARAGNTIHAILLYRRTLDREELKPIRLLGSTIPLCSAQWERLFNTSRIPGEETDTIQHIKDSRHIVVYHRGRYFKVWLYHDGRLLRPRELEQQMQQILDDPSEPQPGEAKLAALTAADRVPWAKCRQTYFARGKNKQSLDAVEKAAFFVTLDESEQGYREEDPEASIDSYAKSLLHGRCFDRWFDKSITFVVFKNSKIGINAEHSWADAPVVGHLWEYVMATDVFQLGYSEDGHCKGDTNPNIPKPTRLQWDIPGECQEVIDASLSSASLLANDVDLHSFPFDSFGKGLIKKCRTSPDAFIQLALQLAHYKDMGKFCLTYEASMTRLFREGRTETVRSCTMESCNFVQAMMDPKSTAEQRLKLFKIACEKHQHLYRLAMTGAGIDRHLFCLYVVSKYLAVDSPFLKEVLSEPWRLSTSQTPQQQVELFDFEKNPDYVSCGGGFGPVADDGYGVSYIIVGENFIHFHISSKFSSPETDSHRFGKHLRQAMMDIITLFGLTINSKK
Protocol: Surgical implantation of ICV cannulae was performed on day 1 (˜3 weeks prior to the in vivo study). Full recovery of body weight and food intake was achieved by day 7. Rats randomized for ribozyme treatment received an ICV injection of CPT1L-Ribo, CPT inhibitors or controls on day 17. The experimental group treated with TDGA received ICV injection of the inhibitor on day 21, 6 hr prior to the harvesting of brains. Panels B. and C. show quantitation of CPT1L (B) and CPT1M (C) mRNA by real-time PCR. RNA was purified from individual hypothalamic nuclei (PVN, LHA, and arcuate), which were obtained by micro punch technique 3 days after ICV injection of pTarget control (▪; N=4) or CPT1LRibo (□; N=5). Copy number of CPT1 mRNA is normalized to β-Actin copy number ×10^6. Panels D. and E. show CPT1 activity in individual arcuate nuclei (D) or whole hypothalamus (E). Brains were harvested 6 hr or 3 days […] the ICV injection of TDGA or CPT1L-Ribo respectively, and arcuate nuclei were punched out. CPT1 activity was measured in the particulate fraction of protein extracts from animals treated with ICV control injections (▪; N=6, receiving aCSF+2% DMSO or Control Ribo), TDGA ( ?; N=6), or CPTL-Ribo (□; N=5). Panels F and E establish that ICV administration of CPT1 inhibitors increases levels of LC-CoAs in arcuate. Levels of stearoyl-CoA (F) and oleyl-CoA (E) respectively were measured by HPLC in arcuate of rats injected ICV with control compound (▪; ST1340) or ST1326 (□).
ICV catheters were implanted in male Sprague-Dawley rats by stereotaxic surgery (Obici et al., 2002a; Obici et al., 2001; Liu et al., 1998). The biochemical or molecular analyses, the metabolic or the feeding experiments were performed ˜3 weeks later following complete recovery from the operation (FIG. 2a). CPT1L-Ribo was delivered ICV three days prior to experimental tests (FIG. 2a). […] Thus, we next measured CPT1 activity in ARC and in whole hypothalamus. […]

[1] = caloric restricted rats (55 kcal/d)

Structure (SMILES)	glucose cycling (hepatic glucose fluxes; [1])	total glucose output (in vivo flux through glucose-6-phosphatase) (hepatic glucose fluxes; [1])	glucose cycling (hepatic glucose fluxes; over-fed rats (140 kcal/d))	Oleyl-CoA levels in ARC (CPT1L)	stearoyl-CoA levels in ARC (CPT1L)	Other LC-CoAs (CPT1L; data not shown)
CCCCCCCC/C=C\CCCCCCCC(=O)O [OA, oleic acid]	modestly and similarly decreased	markedly suppressed	modestly and similarly decreased	–	–	–
CCCCCCCCCCCCCCNC(=O)N[C@H](CC(=O)[O-])C[N+](C)(C)C [ST1326, (R)-N-(tetradecylcarbamoyl)-aminocarnitine]	–	–	–	marked increase	marked increase	significantly increased

Reference: patent US7705016B2, “Regulation of food intake by modulation of long-chain fatty acyl-CoA levels in the hypothalamus” (Albert Einstein College of Medicine of Yeshiva University, priority 2003, dated 2010)
